This passage reports IC50 results from patent publication US11826351B2, “Compounds useful as kinase inhibitors” (Loxo Oncology, Inc., priority 2015, dated 2023).

Experiment [1] concerns OCI-Ly10 human DLBCL cells. The experiment in a line: OCI-Ly10 anti-proliferative activity (Resazurin). The following applies: Homo sapiens, OCI-Ly10, 72 h, OCI-Ly10 cells, 72 h compound treatment, Resazurin; read-out: Proliferation Assay OCI-Ly10-20% FBS. It counts as cell-based. As to the method: Compounds were assayed for effects on the growth of OCI-Ly10 human DLBCL cells that are dependent on NFκB signalling. […] Cells were then plated at 7.5×10^3 cells per well in 96-well plates in varying concentrations of compound and incubated for 72 h at 37° C. An additional plate of cells to be used as the Day 0 read was seeded without compound addition, Resazurin was added to each well, incubated for 5 h and the fluorescence measured at 590 nm. After 72 h of compound treatment, Resazurin was added to each well of the compound treated plates, incubated for 5 h and the fluorescence measured at 590 nm. The IC50 was then calculated by subtracting the average Day 0 value from each well value from the treated plates, each treatment was then calculated as a percentage of the DMSO control and the percentages plotted against the inhibitor concentration to estimate the IC50 from log[Inhibitor] vs response using the Variable Slope model in Graphpad prism from Graphpad software (San Diego, Calif.).
On the technique in general: Resazurin is reduced to fluorescent resorufin, in cell work by metabolically active cells.

For another experiment, the target named is T1, Recombinant EGFR (Homo sapiens, UniProt P00533).
T1 construct: purchased Invitrogen
T1 sequence (P00533 25-1210): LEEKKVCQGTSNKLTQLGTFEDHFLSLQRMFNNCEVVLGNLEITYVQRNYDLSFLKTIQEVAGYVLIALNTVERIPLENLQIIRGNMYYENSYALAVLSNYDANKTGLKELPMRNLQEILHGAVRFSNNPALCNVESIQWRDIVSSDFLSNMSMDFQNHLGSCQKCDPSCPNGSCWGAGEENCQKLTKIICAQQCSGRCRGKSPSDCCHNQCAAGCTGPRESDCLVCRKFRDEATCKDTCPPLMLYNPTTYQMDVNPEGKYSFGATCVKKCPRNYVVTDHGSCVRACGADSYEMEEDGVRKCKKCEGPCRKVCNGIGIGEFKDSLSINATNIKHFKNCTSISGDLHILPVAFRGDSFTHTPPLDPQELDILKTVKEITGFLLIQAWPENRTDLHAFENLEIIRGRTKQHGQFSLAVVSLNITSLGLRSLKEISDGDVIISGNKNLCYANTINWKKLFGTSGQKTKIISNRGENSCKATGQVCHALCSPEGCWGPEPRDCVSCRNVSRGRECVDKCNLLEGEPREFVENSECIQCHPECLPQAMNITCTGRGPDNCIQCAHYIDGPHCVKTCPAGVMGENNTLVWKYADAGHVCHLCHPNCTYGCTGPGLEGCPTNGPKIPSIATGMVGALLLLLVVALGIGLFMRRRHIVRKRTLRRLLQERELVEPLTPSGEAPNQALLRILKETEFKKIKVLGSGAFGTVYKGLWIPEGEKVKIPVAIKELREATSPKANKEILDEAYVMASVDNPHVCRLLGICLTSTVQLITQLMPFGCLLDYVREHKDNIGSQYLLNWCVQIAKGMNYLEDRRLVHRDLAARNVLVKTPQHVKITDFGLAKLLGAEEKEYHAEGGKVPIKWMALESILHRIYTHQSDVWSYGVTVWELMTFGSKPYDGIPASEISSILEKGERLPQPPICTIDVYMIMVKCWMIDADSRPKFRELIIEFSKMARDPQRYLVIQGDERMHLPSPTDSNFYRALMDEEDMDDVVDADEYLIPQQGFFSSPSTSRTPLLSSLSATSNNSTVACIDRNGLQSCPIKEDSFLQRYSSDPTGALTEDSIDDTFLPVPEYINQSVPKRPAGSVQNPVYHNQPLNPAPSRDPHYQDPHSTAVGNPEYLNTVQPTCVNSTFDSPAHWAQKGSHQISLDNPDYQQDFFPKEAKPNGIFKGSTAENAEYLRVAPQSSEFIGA
As to the kind of experiment: EGFR binding affinity (LanthaScreen TR-FRET). The conditions noted are these: Kinase Tracer 199, 5 h incubation. As to the method: EGFR binding affinity was determined using a time-resolved fluorescence resonance energy transfer (TR-FRET) methodology. […] Recombinant EGFR and all LanthaScreen™ components were purchased from Invitrogen. Measurements were performed in a reaction volume of 30 μL using half-area 96-well assay plates. […] Binding affinity was determined for each compound by measuring TR-FRET signal at various concentrations of compound and plotting the relative fluorescence units against the inhibitor concentration to estimate the IC50 from log[Inhibitor] vs response using the Variable Slope model in Graphpad prism from Graphpad software (San Diego, Calif.).
In general terms: In TR-FRET formats the signal depends on donor and acceptor labels being close together.

The target in experiment [2] is T2, Recombinant BTK^WT kinase (Homo sapiens, UniProt Q06187).
T2 construct: purchased Invitrogen
T2 sequence (Q06187 whole entry): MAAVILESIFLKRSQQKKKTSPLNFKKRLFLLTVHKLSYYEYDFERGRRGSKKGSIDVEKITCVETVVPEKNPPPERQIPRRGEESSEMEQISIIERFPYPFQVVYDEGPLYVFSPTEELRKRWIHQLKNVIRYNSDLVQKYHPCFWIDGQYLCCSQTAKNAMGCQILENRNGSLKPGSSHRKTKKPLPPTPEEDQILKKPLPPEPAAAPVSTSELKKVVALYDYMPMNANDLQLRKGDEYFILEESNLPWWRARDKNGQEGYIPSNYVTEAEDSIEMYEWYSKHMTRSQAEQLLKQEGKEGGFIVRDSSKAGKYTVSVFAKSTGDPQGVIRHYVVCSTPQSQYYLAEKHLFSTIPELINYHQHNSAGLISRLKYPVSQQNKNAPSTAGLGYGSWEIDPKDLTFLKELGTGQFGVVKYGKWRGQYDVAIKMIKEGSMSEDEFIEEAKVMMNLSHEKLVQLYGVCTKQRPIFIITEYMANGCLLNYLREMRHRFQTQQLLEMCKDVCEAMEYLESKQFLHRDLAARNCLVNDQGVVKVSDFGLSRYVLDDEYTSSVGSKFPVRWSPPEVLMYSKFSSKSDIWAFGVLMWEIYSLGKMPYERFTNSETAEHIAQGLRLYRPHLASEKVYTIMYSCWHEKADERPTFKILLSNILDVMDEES
As to the kind of experiment: BTK WT binding affinity (LanthaScreen TR-FRET). The following applies: Kinase Tracer 236, 5 h incubation. As to the method:
BTK^WT binding affinity of each compound tested was determined using a time-resolved fluorescence resonance energy transfer (TR-FRET) methodology. 2.5 nM Recombinant BTK^WT kinase, varying concentrations of inhibitor, 2 nM LanthaScreen™ Eu anti-His Antibody and 15 nM Kinase Tracer 236 was incubated in 1× LanthaScreen™ Kinase Buffer A for 5 h. Recombinant BTK kinase and all LanthaScreen™ components were purchased from Invitrogen. Measurements were performed in a reaction volume of 30 μL using half-area 96-well assay plates. The TR-FRET signal was read on a plate reader with an excitation wavelength of 340 nm and detection wavelengths of 615 and 665 nm. Binding affinity was determined for each compound by measuring TR-FRET signal at various concentrations of compound and plotting the relative fluorescence units against the inhibitor concentration to estimate the IC50 from log[Inhibitor] vs response using the Variable Slope model in Graphpad prism from Graphpad software (San Diego, Calif.).

In experiment [3] the target is T3, Recombinant BTK^C481S kinase (Homo sapiens, UniProt Q06187, C481S).
T3 construct: purchased SignalChem
T3 sequence (Q06187 whole entry C481S): as the sequence (Q06187 whole entry) above, with C481S counted along it
As to the kind of experiment: BTK C481S binding affinity (LanthaScreen TR-FRET). The conditions noted are these: Kinase Tracer 236, 5 h incubation. The method, then: BTK^C481S binding affinity of each compound tested was determined using a time-resolved fluorescence resonance energy transfer (TR-FRET) methodology. 5 nM Recombinant BTK^WT kinase, varying concentrations of inhibitor, 2 nM LanthaScreen™ Eu anti-His Antibody and 30 nM Kinase Tracer 236 was incubated in 1× LanthaScreen™ Kinase Buffer A for 5 h. Recombinant BTK^C481S kinase was purchased from SignalChem and all LanthaScreen™ components were purchased from Invitrogen. Measurements were performed in a reaction volume of 30 μL using half-area 96-well assay plates. The TR-FRET signal was read on a plate reader with an excitation wavelength of 340 nm and detection wavelengths of 615 and 665 nm. Binding affinity was determined for each compound by measuring TR-FRET signal at various concentrations of compound and plotting the relative fluorescence units against the inhibitor concentration to estimate the IC50 from log[Inhibitor] vs response using the Variable Slope model in Graphpad prism from Graphpad software (San Diego, Calif.).

`COc1ccc(F)cc1C(=O)NCc1cc(F)c(-c2nn(C3CCCC3)c(N)c2C(N)=O)cc1F` [Example 137, 5-amino-1-cyclopentyl-3-[2,5-difluoro-4-[[(5-fluoro-2-methoxy-benzoyl)amino]methyl]phenyl]pyrazole-4-carboxamide]: the IC50 in experiment [1] was 10 to 100 nM; at Recombinant EGFR, 1000 to 10000 nM; in experiment [2], below 10 nM; in experiment [3], below 10 nM.
Take `COc1ccc(F)cc1C(=O)NCc1ccc(-c2nn(C3CCCC3)c(N)c2C(N)=O)c(F)c1F` [Example 154, 5-amino-1-cyclopentyl-3-[2,3-difluoro-4-[[(5-fluoro-2-methoxy-benzoyl)amino]methyl]phenyl]pyrazole-4-carboxamide]: the IC50 in experiment [1] was 10 to 100 nM; on Recombinant EGFR, above 10000 nM; in experiment [2] it was below 10 nM; in experiment [3], below 10 nM.
On to `COc1ccccc1C(=O)NCc1ccc(-c2nn(C3CCCC(O)C3)c(N)c2C(N)=O)cc1` (centres unmarked) [Example 48, 5-amino-1-(3-hydroxycyclohexyl)-3-[4-[[(2-methoxybenzoyl)amino]methyl]phenyl]pyrazole-4-carboxamide], for which the IC50 is 100 to 1000 nM in experiment [1], 100 to 1000 nM at Recombinant EGFR, below 10 nM in experiment [2] and below 10 nM in experiment [3].
Take `COc1ccccc1C(=O)NCc1ccc(-c2nn(-c3cccc(C)c3)c(N)c2C(N)=O)cc1` [Example 50, 5-amino-3-[4-[[(2-methoxybenzoyl)amino]methyl]phenyl]-1-(m-tolyl)pyrazole-4-carboxamide]: the IC50 in experiment [1] is 10 to 100 nM; on Recombinant EGFR, 100 to 1000 nM; in experiment [2] it was below 10 nM; in experiment [3], below 10 nM.
Turning to `COc1ccc(F)cc1C(=O)NCc1ccc(-c2nn(C3CN(C(C)C)CC3(F)F)c(N)c2C(N)=O)cc1` (centres unmarked) [Example 197, 5-amino-1-(4,4-difluoro-1-isopropyl-pyrrolidin-3-yl)-3-[4-[[(5-fluoro-2-methoxy-benzoyl)amino]methyl]phenyl]pyrazole-4-carboxamide], the IC50 was 10 to 100 nM in experiment [1], 1000 to 10000 nM on Recombinant EGFR, below 10 nM in experiment [2] and below 10 nM in experiment [3].
In the case of `COc1ccccc1C(=O)NCc1ccc(-c2nn(-c3cccc(F)c3F)c(N)c2C(N)=O)cc1` [Example 81, 5-amino-1-(2,3-difluorophenyl)-3-[4-[[(2-methoxybenzoyl)amino]methyl]phenyl]pyrazole-4-carboxamide], the IC50 was 10 to 100 nM in experiment [1], 100 to 1000 nM at Recombinant EGFR, below 10 nM in experiment [2] and below 10 nM in experiment [3].
On to `COc1ccccc1C(=O)NCc1ccc(-c2nn(-c3ccncc3)c(N)c2C(N)=O)cc1` [Example 54, 5-amino-3-[4-[[(2-methoxybenzoyl)amino]methyl]phenyl]-1-(4-pyridyl)pyrazole-4-carboxamide], for which the IC50 in experiment [1] is 100 to 1000 nM; at Recombinant EGFR, 1000 to 10000 nM; in experiment [2], 10 to 100 nM; in experiment [3] it was below 10 nM.
The like results for `CCC(C)n1nc(-c2ccc(CNC(=O)c3ccccc3OC)cc2)c(C(N)=O)c1N` (centres unmarked) [Example 150, 5-amino-3-[4-[[(2-methoxybenzoyl)amino]methyl]phenyl]-1-sec-butyl-pyrazole-4-carboxamide] were, in that order, 10 to 100 nM, 1000 to 10000 nM, below 10 nM and below 10 nM.
The like results for `COc1ccccc1C(=O)NCc1ccc(-c2nn(CC3(C)COC3)c(N)c2C(N)=O)cc1` [Example 8, 5-amino-3-[4-[[(2-methoxybenzoyl)amino]methyl]phenyl]-1-[(3-methyloxetan-3-yl)methyl]pyrazole-4-carboxamide] were, in that order, 100 to 1000 nM, above 10000 nM, 100 to 1000 nM and 10 to 100 nM.
On the same counts, the results for `COc1ccc(F)cc1C(=O)NCc1ccc(-c2nn(CC(F)(F)F)c(N)c2C(N)=O)cc1` [Example 122, 5-amino-3-[4-[[(5-fluoro-2-methoxy-benzoyl)amino]methyl]phenyl]-1-(2,2,2-trifluoroethyl)pyrazole-4-carboxamide] are 10 to 100 nM, 1000 to 10000 nM, below 10 nM and below 10 nM.
Consider `COc1ccccc1C(=O)NCc1ccc(-c2nn([C@H]3CC[C@@H](O)C3)c(N)c2C(N)=O)cc1` (relative stereo) [Example 20, 5-Amino-1-[(1S*,3R*)-3-hydroxycyclopentyl]-3-[4-[[(2-methoxybenzoyl)amino]methyl]phenyl]pyrazole-4-carboxamide], for which the IC50 was 10 to 100 nM in experiment [1], 100 to 1000 nM on Recombinant EGFR, below 10 nM in experiment [2] and below 10 nM in experiment [3].
For `COc1ccccc1C(=O)NCc1ccc(-c2nn(C(C)C3CC3)c(N)c2C(N)=O)cc1` (centres unmarked) [Example 131, 5-amino-1-(1-cyclopropylethyl)-3-[4-[[(2-methoxybenzoyl)amino]methyl]phenyl]pyrazole-4-carboxamide], the IC50 is 10 to 100 nM in experiment [1], 100 to 1000 nM on Recombinant EGFR, below 10 nM in experiment [2] and below 10 nM in experiment [3].
Turning to `COc1ccccc1C(=O)NCc1ccc(-c2nn(-c3cc(F)ccc3F)c(N)c2C(N)=O)cc1` [Example 61, 5-amino-1-(2,5-difluorophenyl)-3-[4-[[(2-methoxybenzoyl)amino]methyl]phenyl]pyrazole-4-carboxamide], the IC50 in experiment [1] is 10 to 100 nM; at Recombinant EGFR it was 100 to 1000 nM; in experiment [2], below 10 nM; in experiment [3], below 10 nM.
`COc1ccccc1C(=O)NCc1ccc(-c2nn(C3CC(=O)c4ccccc43)c(N)c2C(N)=O)cc1` (centres unmarked) [Example 59, 5-amino-3-[4-[[(2-methoxybenzoyl)amino]methyl]phenyl]-1-(3-oxoindan-1-yl)pyrazole-4-carboxamide]: the IC50 is 10 to 100 nM in experiment [1], 1000 to 10000 nM at Recombinant EGFR, below 10 nM in experiment [2] and below 10 nM in experiment [3].
Take `COc1ccc(F)cc1C(=O)NCc1ccc(-c2nn(C(C)C(F)(F)F)c(N)c2C(N)=O)c(F)c1` (centres unmarked) [Example 179, 5-amino-3-[2-fluoro-4-[[(5-fluoro-2-methoxy-benzoyl)amino]methyl]phenyl]-1-(2,2,2-trifluoro-1-methyl-ethyl)pyrazole-4-carboxamide]: the IC50 in experiment [1] was 10 to 100 nM; at Recombinant EGFR, 1000 to 10000 nM; in experiment [2] it was below 10 nM; in experiment [3], below 10 nM.
On to `COc1ccccc1C(=O)NCc1ccc(-c2nn(C3CC(C)(C)OC3(C)C)c(N)c2C(N)=O)cc1` (centres unmarked) [Example 82, 5-amino-3-[4-[[(2-methoxybenzoyl)amino]methyl]phenyl]-1-(2,2,5,5-tetramethyltetrahydrofuran-3-yl)pyrazole-4-carboxamide], for which the IC50 in experiment [1] fell in the range of 1000 to 10000 nM; at Recombinant EGFR it was 1000 to 10000 nM; in experiment [2], 10 to 100 nM; in experiment [3] it was 10 to 100 nM.
On to `CONC(=O)C1CCC(n2nc(-c3ccc(CNC(=O)c4ccccc4OC)cc3)c(C(N)=O)c2N)CC1` (mixture of isomers) [Example 75, 5-amino-3-[4-[[(2-methoxybenzoyl)amino]methyl]phenyl]-1-[4-(methoxycarbamoyl)cyclohexyl]pyrazole-4-carboxamide], for which the IC50 was 100 to 1000 nM in experiment [1], 100 to 1000 nM on Recombinant EGFR, below 10 nM in experiment [2] and below 10 nM in experiment [3].
